Source: the supplement of paper PMC13207355

What was measured:
Conditions in all cases: exposure time: 72 h
E21 [1] = patient-derived glioblastoma stem cells of mesenchymal subtype; test: phenotypic distance (Euclidean, principal components) from DMSO controls (arbitrary units); higher = stronger morphological change
E28 [2] = patient-derived glioblastoma stem cells of classical subtype; test: as above
E31 [3] = patient-derived glioblastoma stem cells of proneural subtype; test: as above
E57 [4] = patient-derived glioblastoma stem cells of mesenchymal subtype; test: as above
FT3469 [5] = normal neural stem cell line; test: as above
E13 [6] = patient-derived glioblastoma stem cells of classical subtype; test: as above
E34 [7] = patient-derived glioblastoma stem cells of proneural subtype; test: as above
E21 [8] = test: surviving fraction (nuclei count normalised to DMSO); higher = more cells surviving (less toxic)
E28 [9] = test: as above
E31 [10] = test: as above
E57 [11] = test: as above
FT3469 [12] = test: as above
E13 [13] = test: as above
E34 [14] = test: as above
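For phenotypic distance (Euclidean, principal components) from DMSO controls in this document: cell Painting imaging in 384-well plates, CellProfiler features reduced to at least 20 principal components, Euclidean distance versus same-plate DMSO vehicle wells (0.1% v/v), median over six images per well.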
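For surviving fraction (nuclei count normalised to DMSO) in this document: nuclei counted by high-content imaging of Hoechst-stained cells in laminin-coated 384-well plates, relative to 0.1% DMSO vehicle wells, with staurosporine as cell-death control.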

C[C@@]12C(=O)OC(=O)[C@]1(C)[C@H]1CC[C@@H]2O1 [Cantharidin]
Conditions | phenotypic distance | surviving fraction
E13 [6], 4.1 nM | 0.99 | –
E13 [6], 12.3 nM | 0.872 | –
E13 [6], 37 nM | 1.04 | –
E13 [6], 111.1 nM | 2.26 | –
E13 [6], 333.3 nM | 7.52 | –
E13 [6], 1000 nM | 22.3 | –
E13 [6], 3000 nM | 22.7 | –
E13 [13], 4.1 nM | – | 0.826
E13 [13], 12.3 nM | – | 0.96
E13 [13], 37 nM | – | 0.919
E13 [13], 111.1 nM | – | 0.735
E13 [13], 333.3 nM | – | 0.139
E13 [13], 1000 nM | – | 0.000925
E13 [13], 3000 nM | – | 0
E21 [1], 4.1 nM | 0.902 | –
E21 [1], 12.3 nM | 0.679 | –
E21 [1], 37 nM | 0.822 | –
E21 [1], 111.1 nM | 2.07 | –
E21 [1], 333.3 nM | 7.76 | –
E21 [1], 1000 nM | 24.2 | –
E21 [1], 3000 nM | 19.8 | –
E21 [8], 4.1 nM | – | 0.865
E21 [8], 12.3 nM | – | 1.05
E21 [8], 37 nM | – | 0.984
E21 [8], 111.1 nM | – | 0.819
E21 [8], 333.3 nM | – | 0.148
E21 [8], 1000 nM | – | 0.00198
E21 [8], 3000 nM | – | 0.00297
E28 [2], 4.1 nM | 0.669 | –
E28 [2], 12.3 nM | 0.782 | –
E28 [2], 37 nM | 1.16 | –
E28 [2], 111.1 nM | 2.74 | –
E28 [2], 333.3 nM | 6.99 | –
E28 [2], 1000 nM | 10.5 | –
E28 [2], 3000 nM | 17.9 | –
E28 [9], 4.1 nM | – | 1.04
E28 [9], 12.3 nM | – | 1.01
E28 [9], 37 nM | – | 0.751
E28 [9], 111.1 nM | – | 0.783
E28 [9], 333.3 nM | – | 0.171
E28 [9], 1000 nM | – | 0.0107
E28 [9], 3000 nM | – | 0
E31 [3], 4.1 nM | 1.14 | –
E31 [3], 12.3 nM | 0.733 | –
E31 [3], 37 nM | 1.22 | –
E31 [3], 111.1 nM | 2.51 | –
E31 [3], 333.3 nM | 10.8 | –
E31 [3], 1000 nM | 17.7 | –
E31 [3], 3000 nM | 15.6 | –
E31 [10], 4.1 nM | – | 0.771
E31 [10], 12.3 nM | – | 0.967
E31 [10], 37 nM | – | 0.793
E31 [10], 111.1 nM | – | 0.531
E31 [10], 333.3 nM | – | 0.0179
E31 [10], 1000 nM | – | 0
E31 [10], 3000 nM | – | 0.00163
E34 [7], 4.1 nM | 0.932 | –
E34 [7], 12.3 nM | 0.828 | –
E34 [7], 37 nM | 0.895 | –
E34 [7], 111.1 nM | 2.91 | –
E34 [7], 333.3 nM | 8.47 | –
E34 [7], 1000 nM | 14.9 | –
E34 [7], 3000 nM | 24.2 | –
E34 [14], 4.1 nM | – | 0.848
E34 [14], 12.3 nM | – | 1.05
E34 [14], 37 nM | – | 1.05
E34 [14], 111.1 nM | – | 0.764
E34 [14], 333.3 nM | – | 0.323
E34 [14], 1000 nM | – | 0.0804
E34 [14], 3000 nM | – | 0.0035
E57 [4], 4.1 nM | 4.16 | –
E57 [4], 12.3 nM | 0.795 | –
E57 [4], 37 nM | 0.509 | –
E57 [4], 111.1 nM | 1.44 | –
E57 [4], 333.3 nM | 7.24 | –
E57 [4], 1000 nM | 9.13 | –
E57 [4], 3000 nM | 24.7 | –
E57 [11], 4.1 nM | – | 0.874
E57 [11], 12.3 nM | – | 0.97
E57 [11], 37 nM | – | 0.933
E57 [11], 111.1 nM | – | 0.882
E57 [11], 333.3 nM | – | 0.172
E57 [11], 1000 nM | – | 0.00764
E57 [11], 3000 nM | – | 0.00204
FT3469 [5], 4.1 nM | 1.54 | –
FT3469 [5], 12.3 nM | 0.532 | –
FT3469 [5], 37 nM | 1.22 | –
FT3469 [5], 111.1 nM | 1.87 | –
FT3469 [5], 333.3 nM | 5.81 | –
FT3469 [5], 1000 nM | 10.9 | –
FT3469 [5], 3000 nM | 17.1 | –
FT3469 [12], 4.1 nM | – | 0.78
FT3469 [12], 12.3 nM | – | 1.06
FT3469 [12], 37 nM | – | 0.835
FT3469 [12], 111.1 nM | – | 0.714
FT3469 [12], 333.3 nM | – | 0.276
FT3469 [12], 1000 nM | – | 0.0288
FT3469 [12], 3000 nM | – | 0.00288

CC(C)C[C@H](NC(=O)[C@H](CCc1ccccc1)NC(=O)CN1CCOCC1)C(=O)N[C@@H](Cc1ccccc1)C(=O)N[C@@H](CC(C)C)C(=O)[C@@]1(C)CO1 [Carfilzomib]
Conditions | phenotypic distance | surviving fraction
E13 [6], 4.1 nM | 7.83 | –
E13 [6], 12.3 nM | 12.9 | –
E13 [6], 37 nM | 15.6 | –
E13 [6], 111.1 nM | 16.7 | –
E13 [6], 333.3 nM | 13.2 | –
E13 [6], 1000 nM | 18.4 | –
E13 [6], 3000 nM | 20.8 | –
E13 [13], 4.1 nM | – | 0.0693
E13 [13], 12.3 nM | – | 0.000925
E13 [13], 37 nM | – | 0.00185
E13 [13], 111.1 nM | – | 0.0037
E13 [13], 333.3 nM | – | 0.00277
E13 [13], 1000 nM | – | 0
E13 [13], 3000 nM | – | 0
E21 [1], 4.1 nM | 6.32 | –
E21 [1], 12.3 nM | 12.1 | –
E21 [1], 37 nM | 18.5 | –
E21 [1], 111.1 nM | 17.9 | –
E21 [1], 333.3 nM | 24 | –
E21 [1], 1000 nM | 18.7 | –
E21 [1], 3000 nM | 17.1 | –
E21 [8], 4.1 nM | – | 0.281
E21 [8], 12.3 nM | – | 0.00694
E21 [8], 37 nM | – | 0.00198
E21 [8], 111.1 nM | – | 0.000991
E21 [8], 333.3 nM | – | 0
E21 [8], 1000 nM | – | 0.00297
E21 [8], 3000 nM | – | 0.000991
E28 [2], 4.1 nM | 3.34 | –
E28 [2], 12.3 nM | 5.12 | –
E28 [2], 37 nM | 6.26 | –
E28 [2], 111.1 nM | 5.31 | –
E28 [2], 333.3 nM | 5.36 | –
E28 [2], 1000 nM | 5.52 | –
E28 [2], 3000 nM | 5.18 | –
E28 [9], 4.1 nM | – | 0.177
E28 [9], 12.3 nM | – | 0.0576
E28 [9], 37 nM | – | 0.0811
E28 [9], 111.1 nM | – | 0.0683
E28 [9], 333.3 nM | – | 0.109
E28 [9], 1000 nM | – | 0.0768
E28 [9], 3000 nM | – | 0.16
E31 [3], 4.1 nM | 8.54 | –
E31 [3], 12.3 nM | 12.7 | –
E31 [3], 37 nM | 11.3 | –
E31 [3], 111.1 nM | 12.1 | –
E31 [3], 333.3 nM | 9.53 | –
E31 [3], 1000 nM | 9.35 | –
E31 [3], 3000 nM | 8.45 | –
E31 [10], 4.1 nM | – | 0.0683
E31 [10], 12.3 nM | – | 0.00163
E31 [10], 37 nM | – | 0.00651
E31 [10], 111.1 nM | – | 0.00163
E31 [10], 333.3 nM | – | 0.00814
E31 [10], 1000 nM | – | 0.013
E31 [10], 3000 nM | – | 0.0195
E34 [7], 4.1 nM | 5.47 | –
E34 [7], 12.3 nM | 11.7 | –
E34 [7], 37 nM | 12.5 | –
E34 [7], 111.1 nM | 13.8 | –
E34 [7], 333.3 nM | 15.8 | –
E34 [7], 1000 nM | 14.1 | –
E34 [7], 3000 nM | 14.9 | –
E34 [14], 4.1 nM | – | 0.262
E34 [14], 12.3 nM | – | 0.0542
E34 [14], 37 nM | – | 0.035
E34 [14], 111.1 nM | – | 0.0297
E34 [14], 333.3 nM | – | 0.042
E34 [14], 1000 nM | – | 0.035
E34 [14], 3000 nM | – | 0.0455
E57 [4], 4.1 nM | 12.2 | –
E57 [4], 12.3 nM | 12.4 | –
E57 [4], 37 nM | 11.4 | –
E57 [4], 111.1 nM | 12.8 | –
E57 [4], 333.3 nM | 8.61 | –
E57 [4], 1000 nM | 14.1 | –
E57 [4], 3000 nM | 13.2 | –
E57 [11], 4.1 nM | – | 0.0418
E57 [11], 12.3 nM | – | 0.00509
E57 [11], 37 nM | – | 0.00509
E57 [11], 111.1 nM | – | 0.00305
E57 [11], 333.3 nM | – | 0.00509
E57 [11], 1000 nM | – | 0.00407
E57 [11], 3000 nM | – | 0.00458
FT3469 [5], 4.1 nM | 5.32 | –
FT3469 [5], 12.3 nM | 7.47 | –
FT3469 [5], 37 nM | 7.85 | –
FT3469 [5], 111.1 nM | 6.13 | –
FT3469 [5], 333.3 nM | 7.43 | –
FT3469 [5], 1000 nM | 6.91 | –
FT3469 [5], 3000 nM | 7.23 | –
FT3469 [12], 4.1 nM | – | 0.224
FT3469 [12], 12.3 nM | – | 0.158
FT3469 [12], 37 nM | – | 0.124
FT3469 [12], 111.1 nM | – | 0.095
FT3469 [12], 333.3 nM | – | 0.0806
FT3469 [12], 1000 nM | – | 0.112
FT3469 [12], 3000 nM | – | 0.0863
